From patent US20080214662A1, “METHODS FOR THE TREATMENT OF DEMENTIA BASED ON APO E GENOTYPE” (priority 2002, published 2008)
Values joined by “and” are separate entries in the source; they are usually repeats but may differ in a detail not shown here. Identical values can stand only once.

System: outpatients with probable AD
Test: Pharmacogenetic analysis of ADAS-Cog response to rivastigmine by ApoE ε4 carrier status in Phase III trials ENA 713 B351 and ENA 713 B352
Format: in vivo, human
Parameters: key to mean of change from baseline in ADAS-Cog score at end of study: change from baseline in ADAS-Cog score points
Conditions: for response to treatment (non-deterioration, Table 7), share of individuals: rivastigmine greater than or equal to 6 mg; for 4-point improvement in the ADAS-Cog score (number of individuals) / Deterioration in the ADAS-Cog score (number of individuals) / No 4-point improvement in the ADAS-Cog score (number of individuals) / Non-deterioration in the ADAS-Cog score (number of individuals): 26 weeks
Protocol: A pharmacogenetic study of the effect of a patients ApoE ε4 genotype on the response to the ChEI, rivastigmine was conducted. Rivastigmine tartrate is an inhibitor of both AChE and BuChE and is commercially available under the name EXELON™ from Novartis Pharmaceuticals Corporation, East Hanover, N.J. Individuals In the trial were divided into treatment groups depending on the dose they received, namely <6 mg/day of rivastigmine, 6-12 mg/day of rivastigmine and placebo. Each treatment group was analyzed separately. Individuals in each treatment group were then classified as ApoE ε4 carriers or non-carriers based on the genotype data. A significant association (P=0.0071) between the ApoE ε4 carriers and the greater than 4 point improvement was found in the 6-12 mg group. In contrast, the association of the ApoE ε4 allele with non-deterioration in the study was not significant (P=0.1172) in the same group.
The Phase III clinical trials ENA 713 B352 and ENA 713 B351 are multicenter, double-blind, placebo-controlled, parallel-group study to examine the effect of rivastigmine in outpatients with probable AD. Both trials are conducted over a period of 26 weeks. ENA 713 B351 has 4 treatment arms with comprising of rivastigmine 3 mg/day, rivastigmine 6 mg/day, rivastigmine 9 mg/day or placebo. The initial dose-titration phase (Weeks 1-12) was followed by a fixed-dose phase (Week 13-26), for a total randomized double-blind treatment period of 26 weeks. ENA 713 B352 has 3 treatment arms with comprising of rivastigmine 1-4 mg/day, rivastigmine 6-12 mg/day, and placebo. The initial dose-titration phase (Weeks 1-7) was followed by a fixed-dose phase (Week 8-26), for a total randomized, double-blind treatment period of 26 weeks. The blood samples were handled by the Roskamp Institute, University of South Florida.
Individuals in the trial were classified as being responders if the final change from their baseline ADAS-COG scores is less than or equal to 4-points. A Fisher's Exact test was used to find an association between ApoE genotype and response.
Individuals in the trial were classified as being responders if the final change from their baseline ADAS-Cog scores is less than or equal to 0 points. A Fisher's Exact test was used to find an association between ApoE genotype and response.
Treatment differences in the ApoE ε4 and non-ApoE ε4 carriers were also analyzed. Treatment differences being measured as the 4-point decrease and the non-deterioration classes. An exact Cochran-Armitage test for trend is used to determine if the numbers of responders increase with dose of rivastigmine among each genotype group.
The trial population was divided into three groups based on the treatment they received. The three groups are placebo, rivastigmine <6 mg/day and rivastigmine ≧6 mg/day. All analyses were conducted within each group separately. The genotype data for the ApoE were re-coded for the presence or absence of the […]. The re-coded genotype data were used as the categorical variable.
A non-parametric analysis of variance (ANOVA) model was used for the analysis. Change from baseline in the ADAS-Cog score is used as the dependent variable.

[1] = rivastigmine <6 mg/day, No ε4 allele
[2] = rivastigmine <6 mg/day, ε4 allele carriers
[3] = rivastigmine ≧6 mg/day, No ε4 allele
[4] = rivastigmine ≧6 mg/day, No ε4 allele, listed as Rivastigmine
[5] = rivastigmine ≧6 mg/day, ε4 allele carriers

SMILES: CCN(C)C(=O)Oc1cccc([C@H](C)N(C)C)c1 [rivastigmine]
- response to treatment (non-deterioration, Table 7), share of individuals (ApoE ε4 carriers): 65%
- mean of change from baseline in ADAS-Cog score at end of study (Rivastigmine <6 mg/day, No ε4 allele): 1.444
- mean of change from baseline in ADAS-Cog score at end of study (Rivastigmine <6 mg/day, ε4 allele): 1.293
- mean of change from baseline in ADAS-Cog score at end of study (Rivastigmine ≧6 mg/day, No ε4 allele, listed as Rivastigmine): 0.39
- mean of change from baseline in ADAS-Cog score at end of study (Rivastigmine ≧6 mg/day, ε4 allele): −1.74
- response to treatment (non-deterioration, Table 7), share of individuals (non-ApoE ε4 carriers): 48.7%
- 4-point improvement in the ADAS-Cog score (number of individuals) [1]: 4
- Deterioration in the ADAS-Cog score (number of individuals) [1]: 24
- No 4-point improvement in the ADAS-Cog score (number of individuals) [1]: 32
- Non-deterioration in the ADAS-Cog score (number of individuals) [1]: 12
- No 4-point improvement in the ADAS-Cog score (number of individuals) (rivastigmine <6 mg/day, No ε4 allele, listed as Rivastigmine): 37
- 4-point improvement in the ADAS-Cog score (number of individuals) [2]: 12
- Deterioration in the ADAS-Cog score (number of individuals) [2]: 63
- No 4-point improvement in the ADAS-Cog score (number of individuals) [2]: 83
- Non-deterioration in the ADAS-Cog score (number of individuals) [2]: 32 and 12
- 4-point improvement in the ADAS-Cog score (number of individuals) [3]: 4
- Deterioration in the ADAS-Cog score (number of individuals) [3]: 21
- No 4-point improvement in the ADAS-Cog score (number of individuals) [3]: 37
- Non-deterioration in the ADAS-Cog score (number of individuals) [3]: 20
- 4-point improvement in the ADAS-Cog score (number of individuals) [4]: 26
- No 4-point improvement in the ADAS-Cog score (number of individuals) [4]: 54
- 4-point improvement in the ADAS-Cog score (number of individuals) [5]: 26
- Deterioration in the ADAS-Cog score (number of individuals) [5]: 28
- No 4-point improvement in the ADAS-Cog score (number of individuals) [5]: 54
- Non-deterioration in the ADAS-Cog score (number of individuals) [5]: 52
